Values of other authors, collected in patent US6004532A, “Formulation for Tin-^117m /diethylenetriaminepentaacetic acids” (Brookhaven Science Associates, priority 1998, dated 1999).

Tests used:
[1] = system: bone marrow; settings: for contamination and radiation cystitis risk: therapeutic doses
[2] = system: bone pain

Compound	urinary excretion of radioactivity (therapeutic doses 35 to 210 mCi)	myelosuppression ([1]; human, in vivo)	contamination and radiation cystitis risk [1]	duration of pain relief ([2]; human, in vivo)	onset of clinical benefit / pain relief ([2]; human, in vivo)	onset of clinical benefit / symptom relief (frequently) ([2]; human, in vivo) [h]	onset of pain relief ([2]; pretreatment with androgen, after administration)	bone uptake and retention compared with ^32 P orthophosphate, ^153 Sm-EDTMP, ^186 Re-HEDP, and ^89 SrCl2 (human, in vivo)	palliation of bone pain ([2]; Phase II pilot study, Atkins et al. (1995))	relief of bone pain in humans ([2]; particular efficacy at about 9 to about 25 mCi per 70 kg, WO 95/29706)
O=P([O-])(O)CN(CCN(CP(=O)([O-])O)CP(=O)(O)O)CP(=O)([O-])O.[153Sm+3] [^153 Sm-EDTMP, ^153 Sm ethylenediaminetetramethylenephosphonate]	large amounts of radioactivity can be excreted in the patient's urine	Reversible myelosuppression	creating contamination risks and potentially causing radiation cystitis	four to forty	two	≤ 48				
O=[32P](O)(O)O [^32 P orthophosphate]							five to fourteen			
^117m Sn (Sn^4+) diethylenetriaminepentaacetic acid [^117m Sn (Sn^4+) DTPA]			less risk of contamination and radiation cystitis					higher bone uptake and retention	palliation of bone pain	dose-dependent relief of bone pain
